From US8329757B2, “Curcumin analog compositions and related methods” (Charlesson, LLC, priority 2008, dated 2012)
Where two headings read alike, the source gives them in different places.

Tests used:
Assay type in all cases: cell-based
[1] = system: TNF-α-stimulated generation of reactive oxygen species in human retinal pigment epithelial cells (ARPE-19); experiment: TNF-α-stimulated intracellular ROS generation (CM-H2DCFDA fluorescence); settings: for effect on ROS production: same concentration range (2-8 μM), same conditions; for reduction of ROS: 24 h pretreatment, TNF-α 20 ng/ml, ARPE-19, n=6
Procedure: The intracellular generation of ROS was stimulated by TNF-α. Human retinal pigment epithelial cells (ARPE-19) were cultured on 96-well plates and pretreated with or without aminoguanidine, curcumin, and the CLT010 compounds for 24 h. TNF-α was added into culture medium at the concentration of 20 ng/ml and incubated with the cells for 1 h at 37° C. To measure ROS generation, 5-(and -6)-chloromethyl-2′,7′-dichlorodihydrofluorescein diacetate (CM-H2DCFDA) was added to the cells and incubated for 45 min. The relative fluorescence intensity representing the intracellular generation of ROS was measured using FLUOstar Omega at an emission wavelength of 535 nm, after excitation at 485 nm. TNF-α stimulated the intracellular generation of ROS by 36.9±8.4%, compounded with the untreated cells. Novel antioxidants reduced the intracellular ROS. At concentration of 8 μM, CLT010-01 reduced ROS by 40.5±6.3% (p<0.01, n=6), and CLT010-07 reduced ROS by 50.6±6.8% (p<0.01, n=6).
According to embodiments of experimental data shown in FIG. 2, ARPE-19 cells were pretreated with aminoguanidine, curcumin, CLT010-01, CLT010-07, and CLT010-12 at indicated concentrations for 24 h prior to the addition of TNF-α (20 ng/ml). The cells were incubated with CM-H2DCFDA for 45 min. Relative fluorescent intensity in the untreated cells, TNF-α-stimulated cells and compound plus TNF-α-treated cells. In FIG. 2B, the percentage of relative fluorescent intensity in each compound plus TNF-α-treated cells compared with that of TNF-α-stimulated cells is shown as the compound plus TNF-α vs TNF-α alone: *p<0.05, p<0.01, n=6.

[2] = system: Primary bovine retinal capillary endothelial cells (BRCECs); experiment: MTT cell proliferation assay, BRCECs; settings: 72 hours, mean±SD, n=3, read-out: IC50 (μM) BRCEC
Procedure: (§1) Primary bovine retinal capillary endothelial cells (BRCECs), pericytes and human prostate adenocarcinoma cells (PC-3), and human breast cancer cells (MCF-7 and MDA-MB-231) were treated with the CLT010 compounds at various concentrations for 72 hours.

[3] = system: human prostate adenocarcinoma cells (PC-3); experiment: MTT cell proliferation assay, PC-3; settings: 72 hours, mean±SD, n=3
Procedure: as §1

[4] = system: human breast cancer cells (MDA-MB-231); experiment: MTT cell proliferation assay, MDA-MB-231; settings: mean±SD, n=3
Procedure: as §1

[5] = system: VEGF in human retinal capillary endothelial cells (HRCECs); experiment: CoCl2-induced VEGF over-expression, ELISA of conditioned medium; settings: 24 h, CoCl2 200 μM; for reduction of VEGF levels: n=3
Procedure: To address if new antioxidants block VEGF over-expression induced by hypoxia, we measured levels of VEGF in human retinal capillary endothelial cells (HRCECs) after the exposure of CLT010-01, CLT010-07, and CLT010-12. The effect of new oxidants was compared with curcumin. HRCECs were seeded at a density of 4×10^4 cells/well in 400 μl of growth medium in triplicate in gelatin-coated 24-well plates, 24 h prior to the experiments. VEGF over-expression was induced by 200 μM of cobalt chloride (CoCl2). Cells were incubated with the medium in the presence or absence of CoCl2 and CoCl2 plus curcumin, CLT010-01, CLT010-07 and CLT010-12 at the concentrations of 0.5, 2, and 4 μM. The conditioned medium was collected 24 h after treatment. VEGF concentrations were measured by ELISA specific for VEGF using a commercial kit (R & D Systems, Minneapolis, Minn.). CoCl2 induced VEGF over-expression by 53.1±13.9%, compared to the untreated cells. The novel antioxidants reduced the expression of VEGF (FIGS. 3A and 3B). CLT010-01 reduced the VEGF levels by 48.8±7.8% at 4 μM (p<0.001, n=3). CLT010-07 inhibited the VEGF levels by 45.2±8.5 (p<0.01, n=3) and 57.2±4.4% (p<0.001, n=3) at 2 and 4 μM, respectively. CLT010-12 suppressed the VEGF expression by 24.2±10 (p<0.01, n=3), 58.2±7.2 (p<0.001, n=3), and 67.3±4.4% (p<0.001, n=3) at 0.5, 2 and 4 μM (p<0.001, n=3), respectively (FIG. 3B).
According to embodiments of experimental data shown in FIG. 3, HRCECs were cultured in the presence or absence of CoCl2, CoCl2 plus curcumin, CLT010-01, CLT010-07, and CLT010-12 at concentrations as indicated. The conditioned medium was collected after 24 h treatment. VEGF levels were measured by ELISA. In FIG. 3A, VEGF concentrations in the medium from the untreated cells, CoCl2-treated cells, and CoCl2 plus compound-treated cells are shown. In FIG. 3B, the percentage of VEGF concentrations in the medium from CoCl2 plus compound-treated cells compared with that of the medium from CoCl2-treated cells is shown. CoCl2 plus compounds plus vs. CoCl2: *p<0.01, p<0.001, n=3.

PC-3M = experiment: MTT cell proliferation assay, PC-3M; settings: 72 hours, mean±SD, n=3
Procedure: [The source words this procedure for another cell line and reports this cell line under the same test.] as §1

[6] = system: human breast cancer cells (MCF-7); experiment: MTT cell proliferation assay, MCF-7; settings: mean±SD, n=3
Procedure: as §1

pericytes = experiment: MTT cell proliferation assay, pericytes; settings: 72 hours
Procedure: as §1

Du145 = experiment: MTT cell proliferation assay, Du145; settings: mean±SD, n=3
Procedure: [The source words this procedure for another cell line and reports this cell line under the same test.] as §1

cancer cells = experiment: MTT cell proliferation assay, cancer cells (summary over lines); settings: Homo sapiens, 72 hours, range across cancer cell lines, read-out: IC50, growth of cancer cells (range over cell lines)
Procedure: as §1

Compound | effect on ROS production [1] | IC50 ([2]; Bos taurus, Endothelial cell) [µM] | IC50 [3] [µM] | IC50 ([4]; 72 hours) [µM] | reduction of VEGF levels ([5]; 4 μM) [%] | reduction of ROS ([1]; 8 μM) [%] | IC50 (PC-3M) [µM] | IC50 ([6]; 72 hours) [µM] | inhibition of the growth of pericytes (pericytes) | IC50 (Du145; 72 hours) [µM] | reduction of VEGF levels ([5]; 2 μM) [%] | IC50 [2] [µM] | other results
N=C(N)NN [Aminoguanidine, reference compound] | did not significantly affect | > 32 |  |  |  |  |  |  |  |  |  |  | 
COc1cc(/C=C/C(=O)CC(=O)/C=C/c2ccc(OS(N)(=O)=O)c(OC)c2)ccc1OS(N)(=O)=O [CLT010-01] |  |  | 15.8 ± 1.6 | 3.1 ± 1.3 | 48.8±7.8 | 40.5±6.3 | 8.5 ± 0.5 | 5.5 ± 1.2 | did not significantly inhibit | 25.9 ± 0.3 |  |  | 
COc1cc(/C=C/c2cc(/C=C/c3ccc(OS(N)(=O)=O)c(OC)c3)[nH]n2)ccc1OS(N)(=O)=O [CLT010-07] |  |  | 1.8 ± 0.3 | 6.2 ± 1.6 | 57.2±4.4 | 50.6±6.8 | 6.7 ± 0.7 | 6.5 ± 0.1 | did not significantly inhibit | 5.3 ± 2.4 | 45.2±8.5 | 3.9 ± 0.1 | 
COc1cc(/C=C/C(=O)/C=C/c2cc(OC)c(OS(N)(=O)=O)c(OC)c2)cc(OC)c1OS(N)(=O)=O [CLT010-12] |  |  | 1.9 ± 0.04 | 0.6 ± 0.1 | 67.3±4.4 | 55.1±3.9 | 4.2 ± 0.1 | 1.5 ± 0.1 | did not significantly inhibit | 6.3 ± 0.2 | 58.2±7.2 | 3.6 ± 0.2 | reduction of VEGF levels ([5]; 0.5 μM): 24.2±10%; reduction of ROS ([1]; 2 μM): 15.3±2.9%; reduction of ROS ([1]; 4 μM): 32.9±5.9%
COc1cc(/C=C/C(=O)CC(=O)/C=C/c2ccc(O)c(OC)c2)ccc1O [Curcumin] | did not significantly affect | 13.8 |  |  |  |  |  |  |  |  |  |  | IC50 ([3]; Homo sapiens): 9.5 ± 1.6 µM; IC50 ([4]; Homo sapiens, MDA-MB-231, 72 hours): 25.6 ± 4.8 µM; inhibition of the release of VEGF from cells into medium ([5]; 0.5, 2, and 4 μM, p>0.05, n=3): did not significantly inhibit; IC50 (PC-3M; Homo sapiens, PC-3M): 10.7 ± 1.3 µM; IC50 ([6]; Homo sapiens, MCF7, 72 hours): 21.5 ± 4.7 µM; IC50 (cancer cells): 9.5 to 25.6 µM; IC50 (Du145; Homo sapiens, DU-145, 72 hours): 20.7 ± 3.5 µM
